Common to all, as to format: cell-based
Test [1] deals with TNFα. As to the kind of experiment: LPS-induced TNFα release in THP-1 cells. As to conditions: Homo sapiens, THP-1, THP1 cells. As to the method:
THP-1 cells, a human monocytic cell line, were stimulated with 3 μg/mL of LPS (from E. Coli; 0111:B4, Sigma) for 4 hr and the supernatant collected for determination of the TNFα concentration by sandwich ELISA (Duo-set, R&D systems). The inhibition of TNFα production was calculated at each concentration by comparison with vehicle control.

For test [2], the system named is TNFα. The test is described as follows: LPS-induced TNFα release in d-U937 cells. As to conditions: Homo sapiens, dU937, dU937 cells; relative to 10 μg/mL BIRB796; read-out: LPS Induced Release TNFα REC50 (dU937). The procedure: (§1) U937 cells, a human monocytic cell line, were differentiated into macrophage-type cells by incubation with PMA (100 ng/mL) for 48 to 72 hr. Cells were pre-incubated with final concentrations of test compound for 2 hr and were then stimulated with LPS (0.1 μg/mL; from E. Coli: O111:B4, Sigma) for 4 hr. The supernatant was collected for determination of TNFα and IL-8 concentrations by sandwich ELISA (Duo-set, R&D systems). […] The relative 50% effective concentration (REC50) was determined from the resultant concentration-response curve. The inhibition of IL-8 production was calculated at each concentration of test compound by comparison with vehicle control.

Test [3] deals with IL-8. The test is described as follows: LPS-induced IL-8 release in d-U937 cells. As to conditions: Homo sapiens, dU937, dU937 cells. The procedure: as §1
Test [4] has as its system IL-8. As to the kind of experiment: Rhinovirus-induced IL-8 release in BEAS2B cells. The settings on record: Homo sapiens, BEAS-2B, at 0.04 μg/mL; read-out: HRV IL-8 (BEAS2B) % inhibition. The procedure:
Human rhinovirus RV16 was obtained from the American Type Culture Collection (Manassas, Va.). Viral stocks were generated by infecting Hela cells with HRV until 80% of the cells were cytopathic.
BEAS2B cells were infected with HRV at an MOI of 5 and incubated for 2 hr at 33° C. with gentle shaking for to promote absorption. The cells were then washed with PBS, fresh media added and the cells were incubated for a further 72 hr. The supernatant was collected for assay of IL-8 concentrations using a Duoset ELISA development kit (R&D systems, Minneapolis, Minn.). […]

The next test relates to HRV16. The test is described as follows: HRV16 induced CPE in MRC5 cells. As to conditions: Human rhinovirus sp., HRV16, MRC5, at 0.04 μg/mL; read-out: HRV CPE (MRC5) % inhibition. As to the method:
The supernatants were aspirated, and then fresh media added followed by incubation for 4 days. Where appropriate, cells were pre-incubated with compound or DMSO for 2 hr, and the compounds and DMSO added again after washout of the virus.
The percentage inhibition for each well was calculated. The IC50 value was calculated from the concentration-response curve generated by the serial dilutions of the test compounds.

Consider `Cc1ccc(Nc2nccc(Oc3ccc(NC(=O)Nc4cc(C(C)(C)C)nn4-c4ccc(C)cc4)c4ccccc34)n2)cc1` [Example 11, 1-(3-(tert-butyl)-1-(p-tolyl)-1H-pyrazol-5-yl)-3-(4-((2-(p-tolylamino)pyrimidin-4-yl)oxy)naphthalen-1-yl)urea], for which the IC50 is 21 nM in the test with TNFα [1] and above 1680 nM with IL-8 [3]. Besides, in the test with TNFα [2], the EC50 turned out to be 35 nM. Besides, the inhibition at 0.04 µg/mL in the test on IL-8 [4] and in the test with HRV16 was 100% throughout.
With `Cc1ccc(-n2nc(C(C)(C)C)cc2NC(=O)Nc2ccc(Oc3ccnc(Nc4cccc(C)c4)n3)c3ccccc23)cc1` [Example 12, 1-(3-(tert-butyl)-1-(p-tolyl)-1H-pyrazol-5-yl)-3-(4-((2-(m-tolylamino)pyrimidin-4-yl)oxy)naphthalen-1-yl)urea], the values for the IC50 in the test with TNFα [1] and in the test on IL-8 [3] were 30 nM and 2.4 nM, respectively. The EC50 in the test with TNFα [2] is 2 nM. The inhibition at 0.04 µg/mL with IL-8 [4] and in the test on HRV16 was 100% in each case.
Consider `CC(C)(C)c1cc(NC(=O)Nc2ccc(Oc3ccnc(Nc4ccccc4)n3)c3ccccc23)n(-c2ccc(O)cc2)n1` [Example 3, 1-(3-(tert-butyl)-1-(4-hydroxyphenyl)-1H-pyrazol-5-yl)-3-(4-((2-(phenylamino)pyrimidin-4-yl)oxy)naphthalen-1-yl)urea], for which the results for the IC50 in the test with TNFα [1] and in the test with IL-8 [3] were 1.2 nM and 1.8 nM, respectively. Besides, the EC50 in the test on TNFα [2] was 1.7 nM. The inhibition at 0.04 µg/mL in the test on IL-8 [4] and in the test with HRV16 was 100% throughout.
Take `Cc1ccc(-n2nc(C(C)(C)C)cc2NC(=O)Nc2ccc(Oc3ccnc(Nc4cccc(Cl)c4)n3)c3ccccc23)cc1` [Example 13, 1-(3-(tert-butyl)-1-(p-tolyl)-1H-pyrazol-5-yl)-3-(4-((2-((3-chlorophenyl)amino)pyrimidin-4-yl)oxy)naphthalen-1-yl)urea]: the IC50 in the test on TNFα [1] was 1600 nM; in the test with IL-8 [3], above 1620 nM. The EC50 in the test with TNFα [2] is above 1620 nM. For the same compound, the inhibition at 0.04 µg/mL in the test on IL-8 [4] and with HRV16 was 100% throughout.
As for `Cc1ccc(-n2nc(C(C)(C)C)cc2NC(=O)Nc2ccc(Oc3ccnc(Nc4cccc(F)c4)n3)c3ccccc23)cc1` [Example 15, 1-(3-(tert-butyl)-1-(p-tolyl)-1H-pyrazol-5-yl)-3-(4-((2-((3-fluorophenyl)amino)pyrimidin-4-yl)oxy)naphthalen-1-yl)urea], the IC50 is 3 nM with TNFα [1] and 2.3 nM with IL-8 [3]. Further, the EC50 in the test on TNFα [2] was determined as 2.2 nM. The inhibition at 0.04 µg/mL in the test with IL-8 [4] and in the test on HRV16 was 100% in each case.
Take `Cc1ccc(-n2nc(C(C)(C)C)cc2NC(=O)Nc2ccc(Oc3ccnc(Nc4cc(C)ccc4C)n3)c3ccccc23)cc1` [Example 10, 1-(3-(tert-butyl)-1-(p-tolyl)-1H-pyrazol-5-yl)-3-(4-((2-((2,5-dimethylphenyl)amino)pyrimidin-4-yl)oxy)naphthalen-1-yl)urea]: the values for the IC50 in the test with TNFα [1] and with IL-8 [3] were 45 nM and 15 nM, respectively. Also, the EC50 in the test with TNFα [2] is 15 nM. The inhibition at 0.04 µg/mL in the test with IL-8 [4] and with HRV16 was 100% each time.
As to `Cc1ccc(-n2nc(C(C)(C)C)cc2NC(=O)Nc2ccc(Oc3ccnc(Nc4ccccc4F)n3)c3ccccc23)cc1` [Example 4, 1-(3-(tert-butyl)-1-(p-tolyl)-1H-pyrazol-5-yl)-3-(4-((2-((2-fluorophenyl)amino)pyrimidin-4-yl)oxy)naphthalen-1-yl)urea], the IC50 with TNFα [1] was determined as 4.6 nM; in the test with IL-8 [3] it was 2.3 nM. The EC50 with TNFα [2] is 3.1 nM. For the same compound, the inhibition at 0.04 µg/mL in the test on IL-8 [4] came out at 100%; with HRV16, 44%.
The corresponding values for `COc1cccc(Nc2nccc(Oc3ccc(NC(=O)Nc4cc(C(C)(C)C)nn4-c4ccc(C)cc4)c4ccccc34)n2)c1` [Example 14, 1-(3-(tert-butyl)-1-(p-tolyl)-1H-pyrazol-5-yl)-3-(4-((2-((3-methoxyphenyl)amino)pyrimidin-4-yl)oxy)naphthalen-1-yl)urea] are 2.7 nM, 1.6 nM, 2 nM, 100% and 100%.
The like results for `Cc1ccc(-n2nc(C(C)(C)C)cc2NC(=O)Nc2ccc(Oc3ccnc(Nc4ccc(O)cc4F)n3)c3ccccc23)cc1` [Example 30, 1-(3-(tert-butyl)-1-(p-tolyl)-1H-pyrazol-5-yl)-3-(4-((2-((2-fluoro-4-hydroxyphenyl)amino)pyrimidin-4-yl)oxy)naphthalen-1-yl)urea] were, in that order, 1.6 nM, 3 nM, 1 nM, 100% and at most 0%.
The like results for `Cc1ccc(-n2nc(C(C)(C)C)cc2NC(=O)Nc2ccc(Oc3ccnc(Nc4ccc(O)cc4Cl)n3)c3ccccc23)cc1` [Example 31, 1-(3-(tert-butyl)-1-(p-tolyl)-1H-pyrazol-5-yl)-3-(4-((2-((2-chloro-4-hydroxyphenyl)amino)pyrimidin-4-yl)oxy)naphthalen-1-yl)urea] were, in that order, 6.1 nM, 32 nM, 16 nM, 100% and at most 0%.
Consider `Cc1ccc(-n2nc(C(C)(C)C)cc2NC(=O)Nc2ccc(Oc3ccnc(Nc4ccccc4C(C)C)n3)c3ccccc23)cc1` [Example 20, 1-(3-(tert-butyl)-1-(p-tolyl)-1H-pyrazol-5-yl)-3-(4-((2-((2-isopropylphenyl)amino)pyrimidin-4-yl)oxy)naphthalen-1-yl)urea], for which the results for the IC50 with TNFα [1] and in the test on IL-8 [3] were 121 nM and 23 nM, respectively. For the same compound, the EC50 in the test with TNFα [2] amounted to 18 nM. Moreover, the inhibition at 0.04 µg/mL with IL-8 [4] was 100%; with HRV16, at most 0%.
The like results for `COc1ccc(Nc2nccc(Oc3ccc(NC(=O)Nc4cc(C(C)(C)C)nn4-c4ccc(C)cc4)c4ccccc34)n2)cc1` [Example 17, 1-(3-(tert-butyl)-1-(p-tolyl)-1H-pyrazol-5-yl)-3-(4-((2-((4-methoxyphenyl)amino)pyrimidin-4-yl)oxy)naphthalen-1-yl)urea] were, in that order, 4.3 nM, 2.1 nM, 2 nM, 100% and at most 0%.
The like results for `COc1ccc(Nc2nccc(Oc3ccc(NC(=O)Nc4cc(C(C)(C)C)nn4-c4ccc(C)cc4)c4ccccc34)n2)cc1Cl` [Example 28, 1-(3-(tert-butyl)-1-(p-tolyl)-1H-pyrazol-5-yl)-3-(4-((2-((3-chloro-4-methoxyphenyl)amino)pyrimidin-4-yl)oxy)naphthalen-1-yl)urea] were, in that order, 0.4 nM, 18 nM, 14 nM, 100% and 54%.
`Cc1ccc(-n2nc(C(C)(C)C)cc2NC(=O)Nc2ccc(Oc3ccnc(Nc4ccccc4Cl)n3)c3ccccc23)cc1` [Example 6, 1-(3-(tert-butyl)-1-(p-tolyl)-1H-pyrazol-5-yl)-3-(4-((2-((2-chlorophenyl)amino)pyrimidin-4-yl)oxy)naphthalen-1-yl)urea]: the results for the IC50 in the test on TNFα [1] and in the test on IL-8 [3] were 225 nM and 15 nM, respectively. In the test with TNFα [2], the EC50 was 7 nM.
Turning to `COCC(=O)Nc1cc(Oc2ccc(NC(=O)Nc3cc(C(C)(C)C)nn3-c3ccc(C)cc3)c3ccccc23)ccn1` [Reference Compound, N-(4-(4-(3-(3-tert-butyl-1-p-tolyl-1H-pyrazol-5-yl)ureido)naphthalen-1-yloxy)pyridin-2-yl)-2-methoxyacetamide, reference compound], the EC50 with TNFα [2] turned out to be 0.13 nM.
